Results on 24 molecules are retold here after US20110224208A1, “NOVEL INHIBITORS OF FLAVIVIRUS REPLICATION” (KATHOLIEKE UNIVERSITEIT LEUVEN, K.U. LEUVEN R&D, priority 2008, published 2011).

For the assay, the system named is HCV replicon I389luc-ubi-neo/NS3-3'/5.1. The assay is described as follows: Anti-HCV replicon assay (luciferase activity) in Huh-5-2 cells. The format is cell-based, Hepatitis C virus. To be noted: Hepatitis C virus, Huh-5-2, 72 h, concentration required to inhibit luciferase activity in the replicon system by 50%. On the procedure: Cells were seeded at a density of 7000 cells per well in 96 well View Plate™ (Packard) in medium containing the same components as described above, except for G418. Cells were allowed to adhere and proliferate for 24 hr. At that time, culture medium was removed and serial dilutions of the test compounds were added in culture medium lacking G418. Interferon alfa 2a (500 IU) was included as a positive control. Plates were further incubated at 37° C. and 5% CO2 for 72 hours. Replication of the HCV replicon in Huh-5 cells results in luciferase activity in the cells. Luciferase activity is measured by adding 50 μl of 1×Glo-lysis buffer (Promega) for 15 minutes followed by 50 ul of the Steady-Glo Luciferase assay reagent (Promega). Luciferase activity is measured with a luminometer and the signal in each individual well is expressed as a percentage of the untreated cultures. […] Instead the density of the culture is measured by means of the MTS method (Promega).

SMILES strings stand for the structures. In brackets after ≈: the same amount, converted by molar mass.

Regarding `COCCN1C(=O)c2ccccc2C(C(=O)Nc2ccc(F)c(Cl)c2)C1c1cccs1` (stereo not drawn) [C94, N-(3-chloro-4-fluorophenyl)-2-(2-methoxyethyl)-1-oxo-3-(thiophen-2-yl)-1,2,3,4-tetrahydroisoquinoline-4-carboxamide], 0.25 µg/mL (≈ 0.545 µM) corresponded to half-maximal inhibition (IC50).
`COCCN1C(=O)c2ccccc2C(C(=O)Nc2cccc(OC)c2)C1c1cc(C)no1` (stereo not drawn) [C104, 2-(2-methoxyethyl)-N-(3-methoxyphenyl)-3-(3-methylisoxazol-5-yl)-1-oxo-1,2,3,4-tetrahydroisoquinoline-4-carboxamide] registered a half-maximal inhibitory concentration (IC50) of 10.1 µg/mL (≈ 23.1 µM).
Regarding `COCCN1C(=O)c2ccccc2C(C(=O)Nc2cccc(OC)c2)C1c1ccnn1C` (stereo not drawn) [C105, 2-(2-methoxyethyl)-N-(3-methoxyphenyl)-3-(1-methyl-1H-pyrazol-5-yl)-1-oxo-1,2,3,4-tetrahydroisoquinoline-4-carboxamide], half-maximal inhibition (IC50) required 50.5 µg/mL (≈ 116 µM).
For the molecule `COCCN1C(=O)c2ccccc2C(C(=O)Nc2cccc(OC)c2)C1c1cccn1C` (stereo not drawn) [C106, 2-(2-methoxyethyl)-N-(3-methoxyphenyl)-3-(1-methyl-1H-pyrrol-2-yl)-1-oxo-1,2,3,4-tetrahydroisoquinoline-4-carboxamide], the IC50 amounted to 44.4 µg/mL (≈ 103 µM).
The same measure for `COCCN1C(=O)c2ccccc2C(C(=O)Nc2cc(C)nn2C)C1c1cccs1` (stereo not drawn) [C109, N-(1,3-dimethyl-1H-pyrazol-5-yl)-2-(2-methoxyethyl)-1-oxo-3-(thiophen-2-yl)-1,2,3,4-tetrahydroisoquinoline-4-carboxamide]: 43.4 µg/mL (≈ 102 µM); for `COCCN1C(=O)c2ccccc2C(C(=O)Nc2cccc(OC(F)(F)F)c2)C1c1cccs1` (stereo not drawn) [C112, 2-(2-methoxyethyl)-1-oxo-3-(thiophen-2-yl)-N-(3-(trifluoromethoxy)phenyl)-1,2,3,4-tetrahydroisoquinoline-4-carboxamide]: 0.31 µg/mL (≈ 0.632 µM).
As for `COCCN1C(=O)c2ccccc2C(C(=O)Nc2ccc(OC(F)(F)F)cc2)C1c1cccs1` (stereo not drawn) [C113, 2-(2-methoxyethyl)-1-oxo-3-(thiophen-2-yl)-N-(4-(trifluoromethoxy)phenyl)-1,2,3,4-tetrahydroisoquinoline-4-carboxamide], the IC50 came out at 0.19 µg/mL (≈ 0.387 µM).
The same measure for `COCCN1C(=O)c2ccccc2C(C(=O)Nc2ccc(C(=O)OC)c(OC)c2)C1c1cccs1` (stereo not drawn) [C114, methyl 2-methoxy-4-(2-(2-methoxyethyl)-1-oxo-3-(thiophen-2-yl)-1,2,3,4-tetrahydroisoquinoline-4-carboxamido)benzoate]: 0.47 µg/mL (≈ 0.95 µM); for `COCCN1C(=O)c2ccccc2C(C(=O)Nc2cccc(-n3cccc3)c2)C1c1cccs1` (stereo not drawn) [C115, N-(3-(1H-pyrrol-1-yl)phenyl)-2-(2-methoxyethyl)-1-oxo-3-(thiophen-2-yl)-1,2,3,4-tetrahydroisoquinoline-4-carboxamide]: 0.29 µg/mL (≈ 0.615 µM); for `COCCN1C(=O)c2ccccc2C(C(=O)Nc2ccc(N3CCOCC3)cc2)C1c1cccs1` (stereo not drawn) [C121, 2-(2-methoxyethyl)-N-(4-morpholinophenyl)-1-oxo-3-(thiophen-2-yl)-1,2,3,4-tetrahydroisoquinoline-4-carboxamide]: 1.06 µg/mL (≈ 2.16 µM).
The same measure for `COCCN1C(=O)c2ccccc2C(C(=O)Nc2ccc(NC(C)=O)cc2)C1c1cccs1` (stereo not drawn) [C129, N-(4-acetamidophenyl)-2-(2-methoxyethyl)-1-oxo-3-(thiophen-2-yl)-1,2,3,4-tetrahydroisoquinoline-4-carboxamide]: 6.66 µg/mL (≈ 14.4 µM).
The same measure for `COCCN1C(=O)c2ccccc2C(C(=O)Nc2ccc3[nH]ncc3c2)C1c1cccs1` (stereo not drawn) [C132, N-(1H-indazol-5-yl)-2-(2-methoxyethyl)-1-oxo-3-(thiophen-2-yl)-1,2,3,4-tetrahydroisoquinoline-4-carboxamide]: 1 µg/mL (≈ 2.24 µM); for `COCCN1C(=O)c2ccccc2C(C(=O)Nc2cccc(OC)c2)C1C#N` (stereo not drawn) [C143, 3-cyano-2-(2-methoxyethyl)-N-(3-methoxyphenyl)-1-oxo-1,2,3,4-tetrahydroisoquinoline-4-carboxamide]: 24.3 µg/mL (≈ 64 µM); for `COCCN1C(=O)c2ccccc2C(C(=O)Nc2ccc(Cl)cc2N)C1c1cccs1` (stereo not drawn) [C144, N-(2-amino-4-chlorophenyl)-2-(2-methoxyethyl)-1-oxo-3-(thiophen-2-yl)-1,2,3,4-tetrahydroisoquinoline-4-carboxamide]: 5.16 µg/mL (≈ 11.3 µM).
In turn, `COCCN1C(=O)c2cc(N)ccc2C(C(=O)Nc2cccc(OC)c2)C1c1cccs1` (stereo not drawn) [C147, 7-amino-2-(2-methoxyethyl)-N-(3-methoxyphenyl)-1-oxo-3-(thiophen-2-yl)-1,2,3,4-tetrahydroisoquinoline-4-carboxamide] returned an IC50 of 0.14 µg/mL (≈ 0.31 µM).
For `COCCN1C(=O)c2ccccc2C(C(=O)Nc2nc(C)co2)C1c1cccs1` (stereo not drawn) [C154, 2-(2-methoxyethyl)-N-(4-methyloxazol-2-yl)-1-oxo-3-(thiophen-2-yl)-1,2,3,4-tetrahydroisoquinoline-4-carboxamide], the IC50 was 3.68 µg/mL (≈ 8.94 µM).
`COCCN1C(=O)c2ccccc2C(C(=O)Nc2nc(C)c(C)s2)C1c1cccs1` (stereo not drawn) [C156, N-(4,5-dimethylthiazol-2-yl)-2-(2-methoxyethyl)-1-oxo-3-(thiophen-2-yl)-1,2,3,4-tetrahydroisoquinoline-4-carboxamide] had an IC50 of 37.4 µg/mL (≈ 84.7 µM).
`COCCN1C(=O)c2ccccc2C(C(=O)Nc2ccc(Oc3ccccc3)nc2)C1c1cccs1` (stereo not drawn) [C158, 2-(2-methoxyethyl)-1-oxo-N-(6-phenoxypyridin-3-yl)-3-(thiophen-2-yl)-1,2,3,4-tetrahydroisoquinoline-4-carboxamide] registered an IC50 of 0.04 µg/mL (≈ 0.0801 µM). This IC50 lies about 940-fold lower than the previous one.
Molecule `COCCN1C(=O)c2ccccc2C(C(=O)Nc2ccncn2)C1c1cccs1` (stereo not drawn) [C162, 2-(2-methoxyethyl)-1-oxo-N-(pyrimidin-4-yl)-3-(thiophen-2-yl)-1,2,3,4-tetrahydroisoquinoline-4-carboxamide] came in with an IC50 of 3.56 µg/mL (≈ 8.72 µM).
In turn, `COCCN1C(=O)c2ccccc2C(C(=O)Nc2ccc3scnc3c2)C1c1cccs1` (stereo not drawn) [C164, N-(benzo[d]thiazol-5-yl)-2-(2-methoxyethyl)-1-oxo-3-(thiophen-2-yl)-1,2,3,4-tetrahydroisoquinoline-4-carboxamide] returned an IC50 of 0.13 µg/mL (≈ 0.28 µM).
The same measure for `COCCN1C(=O)c2ccccc2C(C(=O)Nc2ccc(C(C)C)cc2)C1c1cccs1` (stereo not drawn) [C165, N-(4-isopropylphenyl)-2-(2-methoxyethyl)-1-oxo-3-(thiophen-2-yl)-1,2,3,4-tetrahydroisoquinoline-4-carboxamide]: 0.4 µg/mL (≈ 0.892 µM); for `COCCN1C(=O)c2ccccc2C(C(=O)Nc2ccc3nccnc3c2)C1c1cccs1` (stereo not drawn) [C171, 2-(2-methoxyethyl)-1-oxo-N-(quinoxalin-6-yl)-3-(thiophen-2-yl)-1,2,3,4-tetrahydroisoquinoline-4-carboxamide]: 0.12 µg/mL (≈ 0.262 µM); for `COCCN1C(=O)c2ccccc2C(C(=O)Nc2ccc3c(c2)CCN3C)C1c1cccs1` (stereo not drawn) [C176, 2-(2-methoxyethyl)-N-(1-methylindolin-5-yl)-1-oxo-3-(thiophen-2-yl)-1,2,3,4-tetrahydroisoquinoline-4-carboxamide]: 0.48 µg/mL (≈ 1.04 µM).
In turn, `COCCN1C(=O)c2ccccc2C(C(=O)Nc2cc(-c3ccccc3)[nH]n2)C1c1cccs1` (stereo not drawn) [C182, 2-(2-methoxyethyl)-1-oxo-N-(5-phenyl-1H-pyrazol-3-yl)-3-(thiophen-2-yl)-1,2,3,4-tetrahydroisoquinoline-4-carboxamide] gave an IC50 of 21.8 µg/mL (≈ 46.1 µM).
